# Results as given in patent US4401812A, “Anthracycline antibiotics” (Hoffmann-La Roche Inc., priority 1980, dated 1983).
# Read-outs that look alike come from different tables or passages of the source.
# Assays:
# Sarcina lutea IAM1009 = assay: in vitro MIC, agar streak method; type: cell-based; conditions: Heart infusion agar
# [1] = tested on: Staphylococcus aureus 209P IAM-1011; assay: in vitro MIC, agar streak method; type: cell-based; conditions: Heart infusion agar
# in vivo = conditions: mouse, ip, mice, single i.p. injection, judged 72 hours after, read-out: acute intraperitoneal LD50
# Experimental: The acute intraperitoneal LD50 in mice judged 72 hours after a single injection of the antibiotics is about 90 mg/kg for auramycin C, auramycin D, sulfurmycin C and sulfurmycin D, 40~80 mg/kg for auramycin G and sulfurmycin G and 20~40 mg/kg for auramycin E and sulfurmycin E.
# [2] = tested on: Candida albicans ATCC-10231; assay: in vitro MIC, agar streak method; type: cell-based
# Excerpt: (§1) | ^(2) Sabouraud dextrose agar
# [3] = tested on: Candida tropicalis ATCC-13803; assay: in vitro MIC, agar streak method; type: cell-based
# Excerpt: as §1
# P388 leukaemia = assay: Antitumor effect against P388 leukaemia in CDF1 mice; type: in vivo; conditions: Mus musculus, read-out: Mean survival (T/C, %); for response vs control in vivo at 1.88 mg/kg: 1.88 mg/kg/day i.p.; for response vs control in vivo at 3.75 mg/kg: 3.75 mg/kg/day i.p.; for response vs control in vivo at 7.5 mg/kg: 7.5 mg/kg/day i.p.; for response vs control in vivo at 15 mg/kg: 15.0 mg/kg/day i.p.
# Experimental: The anthracycline glycosides provided by the present invention were tested against P388 leukaemia in mice. When CDF1 mice are inoculated with 1×10^6 cells of P388 intraperitoneally and each of the antibiotics is administered intraperitoneally on days 1, 5 and 9, the survival time of the treated mice is prolonged as shown in Table 5 hereinafter.
# [4] = tested on: Bacillus subtilis IAM-1027; assay: in vitro MIC, agar streak method; type: cell-based
# Excerpt: (§2) | ^(1) Heart infusion agar
# [5] = tested on: Mycobacterium smegmatis IFO-13167; assay: in vitro MIC, agar streak method; type: cell-based; conditions: Mycolicibacterium smegmatis, IFO13167; Mycobacterium smegmatis IFO-13167; Heart infusion agar; read-out: MIC
# Excerpt: as §2
# [6] = tested on: Staphylococcus aureus 209P Stf; assay: in vitro MIC, agar streak method; type: cell-based; conditions: Heart infusion agar
# Excerpt: as §2
# [7] = tested on: Pseudomonas aeruginosa IFO-12689; assay: in vitro MIC, agar streak method; type: cell-based; conditions: IFO12689, Heart infusion agar
# Excerpt: as §2
# [8] = tested on: Micrococcus flavus ATCC-10240; assay: in vitro MIC, agar streak method; type: cell-based
# Excerpt: as §2
# [9] = tested on: Escherichia coli NIHJ IFO-12734; assay: in vitro MIC, agar streak method; type: cell-based
# Excerpt: as §2
# [10] = tested on: Escherichia coli K-12 IAM-1264; assay: in vitro MIC, agar streak method; type: cell-based
# Excerpt: as §2
# Bacillus cereus Rol79B = assay: in vitro MIC, agar streak method; type: cell-based; conditions: Heart infusion agar
# Excerpt: as §2
# [11] = tested on: Staphylococcus epidermidis IFO-12993; assay: in vitro MIC, agar streak method; type: cell-based; conditions: Staphylococcus epidermidis IFO-12993, Heart infusion agar
# Excerpt: as §2
# [12] = Micrococcus luteus, IAM1009, Sarcina lutea IAM-1009, read-out: MIC
# [13] = ATCC10231, Candida albicans ATCC-10231, Sabouraud dextrose agar, read-out: MIC
# [14] = ATCC13803, Candida tropicalis ATCC-13803, Sabouraud dextrose agar, read-out: MIC
# [15] = ip, days 1, 5 and 9, 1×10^6 P388 cells i.p., CDF1 mice
# [16] = IAM1027, Bacillus subtilis IAM-1027, Heart infusion agar, read-out: MIC
# [17] = IFO12734, Escherichia coli NIHJ IFO-12734, Heart infusion agar, read-out: MIC
# [18] = IAM1264, Escherichia coli K-12 IAM-1264, Heart infusion agar, read-out: MIC
# [19] = Staphylococcus aureus, read-out: MIC
# [20] = Micrococcus flavus, ATCC10240, Micrococcus flavus ATCC-10240, Heart infusion agar, read-out: MIC
smiles,measurement,setting,value
COC(=O)C1c2cc3c(c(O)c2C(OC2CC(N(C)C)C(OC4CC(O)C(O)C(C)O4)C(C)O2)CC1(O)CC(C)=O)C(=O)c1c(O)cccc1C3=O (stereo not shown) [Sulfurmycin C],MIC,Sarcina lutea IAM1009; [12],6.25 µg/mL
same,MIC,[1]; read-out: MIC,6.25 µg/mL
same,LD50 at 72 h,in vivo,~90 mg/kg
same,MIC,[2]; [13],> 50 µg/mL
same,MIC,[3]; [14],> 50 µg/mL
same,response vs control in vivo at 1.88 mg/kg,P388 leukaemia; [15],131%
same,response vs control in vivo at 3.75 mg/kg,P388 leukaemia; [15],141%
same,response vs control in vivo at 7.5 mg/kg,P388 leukaemia; [15],138%
same,response vs control in vivo at 15 mg/kg,P388 leukaemia; [15],141%
same,MIC,[4]; [16],12.5 µg/mL
same,MIC,[5],3.13 µg/mL
same,MIC,[6],6.25 µg/mL
same,MIC,[7],> 50 µg/mL
same,MIC,"[8]; ATCC10240, Micrococcus flavus ATCC-10240, Heart infusion agar, read-out: MIC",6.25 µg/mL
same,MIC,[9]; [17],> 50 µg/mL
same,MIC,[10]; [18],> 50 µg/mL
COC(=O)C1c2cc3c(c(O)c2C(OC2CC(N(C)C)C(O)C(C)O2)CC1(O)CC(C)=O)C(=O)c1c(O)cccc1C3=O (stereo not shown) [Sulfurmycin D],MIC,Sarcina lutea IAM1009; [12],25 µg/mL
same,MIC,[1]; [19],25 µg/mL
same,LD50 at 72 h,in vivo,~90 mg/kg
same,MIC,[2]; [13],> 50 µg/mL
same,MIC,[3]; [14],> 50 µg/mL
same,response vs control in vivo at 1.88 mg/kg,P388 leukaemia; [15],106%
same,response vs control in vivo at 3.75 mg/kg,P388 leukaemia; [15],135%
same,response vs control in vivo at 7.5 mg/kg,P388 leukaemia; [15],128%
same,response vs control in vivo at 15 mg/kg,P388 leukaemia; [15],152%
same,MIC,[4]; [16],12.5 µg/mL
same,MIC,[5],6.25 µg/mL
same,MIC,[6],25 µg/mL
same,MIC,[7],> 50 µg/mL
same,MIC,[8]; [20],25 µg/mL
same,MIC,[9]; [17],> 50 µg/mL
same,MIC,[10]; [18],> 50 µg/mL
COC(=O)C1c2cc3c(c(O)c2C(OC2CC(N(C)C)C(OC4CC(O)C(OC5CCC(O)C(C)O5)C(C)O4)C(C)O2)CC1(O)CC(C)=O)C(=O)c1c(O)cccc1C3=O (stereo not shown) [Sulfurmycin E],MIC,Sarcina lutea IAM1009; [12],3.12 µg/mL
same,MIC,[1]; [19],3.12 µg/mL
same,LD50 at 72 h,in vivo,20 to 40 mg/kg
same,MIC,[2]; [13],> 50 µg/mL
same,MIC,[3]; [14],> 50 µg/mL
same,response vs control in vivo at 1.5 mg/kg,"P388 leukaemia; ip, 1.5 mg/kg/day i.p., days 1, 5 and 9, 1×10^6 P388 cells i.p., CDF1 mice",133%
same,response vs control in vivo at 3 mg/kg,"P388 leukaemia; ip, 3.0 mg/kg/day i.p., days 1, 5 and 9, 1×10^6 P388 cells i.p., CDF1 mice",140%
same,response vs control in vivo at 6 mg/kg,"P388 leukaemia; ip, 6.0 mg/kg/day i.p., days 1, 5 and 9, 1×10^6 P388 cells i.p., CDF1 mice",150%
same,response vs control in vivo at 12 mg/kg,"P388 leukaemia; ip, 12.0 mg/kg/day i.p., days 1, 5 and 9, 1×10^6 P388 cells i.p., CDF1 mice",165%
same,MIC,[4]; [16],3.12 µg/mL
same,MIC,Bacillus cereus Rol79B; read-out: MIC,0.39 µg/mL
same,MIC,[8]; [20],3.12 µg/mL
same,MIC,[11],1.56 µg/mL
same,MIC,[9]; [17],> 50 µg/mL
same,MIC,[10]; [18],> 50 µg/mL
COC(=O)C1c2cc3c(c(O)c2C(OC2CC(N(C)C)C(OC4CC(O)C(OC5CCC(O)C(C)O5)C(C)O4)C(C)O2)CC1(O)CC(C)=O)C(=O)c1c(O)cccc1C3=O (stereo not shown) [Sulfurmycin F],MIC,Sarcina lutea IAM1009; Sarcina lutea IAM-1009,1.56 µg/mL
same,MIC,[1],3.12 µg/mL
same,MIC,"[2]; Candida albicans ATCC-10231, Sabouraud dextrose agar",> 50 µg/mL
same,MIC,"[3]; Candida tropicalis ATCC-13803, Sabouraud dextrose agar",> 50 µg/mL
same,MIC,"[4]; Bacillus subtilis IAM-1027, Heart infusion agar",3.12 µg/mL
same,MIC,Bacillus cereus Rol79B,0.39 µg/mL
same,MIC,"[8]; Micrococcus flavus ATCC-10240, Heart infusion agar",1.56 µg/mL
same,MIC,[11],12.5 µg/mL
same,MIC,"[9]; Escherichia coli NIHJ IFO-12734, Heart infusion agar",> 50 µg/mL
same,MIC,"[10]; Escherichia coli K-12 IAM-1264, Heart infusion agar",> 50 µg/mL
COC(=O)C1c2cc3c(c(O)c2C(OC2CC(N(C)C)C(OC4CCC(OC5CCC(O)C(C)O5)C(C)O4)C(C)O2)CC1(O)CC(C)=O)C(=O)c1c(O)cccc1C3=O (stereo not shown) [Sulfurmycin G],MIC,Sarcina lutea IAM1009; [12],12.5 µg/mL
same,MIC,[1]; read-out: MIC,6.25 µg/mL
same,LD50 at 72 h,in vivo,40 to 80 mg/kg
same,MIC,"[2]; Candida albicans, ATCC10231",> 50 µg/mL
same,MIC,"[3]; Candida tropicalis, ATCC13803",> 50 µg/mL
same,response vs control in vivo at 1.5 mg/kg,"P388 leukaemia; P388, ip",104%
same,response vs control in vivo at 3 mg/kg,"P388 leukaemia; P388, ip",112%
same,response vs control in vivo at 6 mg/kg,"P388 leukaemia; P388, ip",113%
same,response vs control in vivo at 12 mg/kg,"P388 leukaemia; P388, ip",123%
same,response vs control in vivo at 24 mg/kg,"P388 leukaemia; P388, ip",144%
same,MIC,"[4]; Bacillus subtilis, IAM1027",6.25 µg/mL
same,MIC,Bacillus cereus Rol79B; read-out: MIC,0.39 µg/mL
same,MIC,"[8]; Micrococcus flavus, ATCC10240",12.5 µg/mL
same,MIC,"[11]; IFO12993, read-out: MIC",12.5 µg/mL
same,MIC,"[9]; Escherichia coli, IFO12734",> 50 µg/mL
same,MIC,"[10]; Escherichia coli, IAM1264",> 50 µg/mL
